From patent US20250035641A1, “COMPOSITIONS AND METHODS RELATED TO PROTEIN LABELING” (The Chinese University of Hong Kong, priority 2023, published 2025)

What was measured:
Format in all cases: cell-based
[1] = biological target: T1, fOGT (FKBP12^F36V fused-OGT) (Homo sapiens, UniProt P62942, F37V); experiment: Intact cell CETSA (fOGT engagement); settings: HEK-293T, 4 h, HEK293T HTN-BRD4:fOGT=1:0.05
T1 construct: expressed in transfected cells; host or cells: HEK293T
Method: For fOGT engagement, we established a cellular thermal shift assay (CETSA). Using same co-expressing system, we treated cells with OGTAC 1-3 for 4 h, and conducted heat challenge to intact cells at a series of temperature to determine the corresponding melting temperature (Tm). […] HEK293T cells (2.5×10^6 cells) were seeded in 10 cm culture dish overnight for attachment. On the next day, cells were transfected with HTN-BRD4:fOGT=1:0.05 plasmid for 24 hours until ˜90% confluence. After treatment with 5 μM compounds or DMSO, cells were collected and washed with PBS. Subsequently, cells were re-suspended in 500 μL PBS and equally divided into 50 μL aliquots. The tubes were subjected to heat challenge at 37-53° C. for 5 mins, followed by cooling on ice. Cells were lysed by three repeated freeze-thaw cycles with liquid nitrogen and water bath. Lastly, cells were centrifuged at 14000 RPM for 15 mins and supernatants were collected for Western Blot analysis.

endogenous CK2α = experiment: Chemoenzymatic labelling and mass-shift assay, endogenous CK2α; settings: OGTAC-1 treatment
HTN-CK2α [2] = biological target: T2, HTN-CK2α (Homo sapiens, UniProt P68400); experiment: Immunoblot of HTN-CK2α O-GlcNAcylation in HeLa cells; settings: 125 nM, 8 h
Method: FIG. 12: Immunoblotting analysis of effects of OGTAC-1 on HTN-CK2αin HeLa cell line. HeLa cells were transfected with fOGT:HTN-CK2α=1:0.1 for 24 h, followed by treatment of OGTAC-1 (125 nM) or other probes for 8 h. For OGTAC-1H, ‘++’ denotes 10-fold concentration of OGTAC-1, while “+” denote the same concentration of OGTAC-1. The quantification was conducted by immunoblot signal of RL2 relative to CK2α. as the mean±s.e.m. of n=3 biologically independent experiments. Statistical significance was calculated by unpaired t-tests.
S347 is a well-defined O-GlcNAcylation site on CK2α, while S348 is the potential alternative site as it is adjacent to S347. To verify the O-GlcNAc sites induced by OGTAC-1 in HTN-CK2α. we constructed HTN-CK2α plasmids with S347A and S347A/S348A mutations. […] Collectively, these findings support the physiological relevance of O-GlcNAcylation induced by OGTAC-1.
Target sequence in this assay (P68400 with tags, fused parts or gaps): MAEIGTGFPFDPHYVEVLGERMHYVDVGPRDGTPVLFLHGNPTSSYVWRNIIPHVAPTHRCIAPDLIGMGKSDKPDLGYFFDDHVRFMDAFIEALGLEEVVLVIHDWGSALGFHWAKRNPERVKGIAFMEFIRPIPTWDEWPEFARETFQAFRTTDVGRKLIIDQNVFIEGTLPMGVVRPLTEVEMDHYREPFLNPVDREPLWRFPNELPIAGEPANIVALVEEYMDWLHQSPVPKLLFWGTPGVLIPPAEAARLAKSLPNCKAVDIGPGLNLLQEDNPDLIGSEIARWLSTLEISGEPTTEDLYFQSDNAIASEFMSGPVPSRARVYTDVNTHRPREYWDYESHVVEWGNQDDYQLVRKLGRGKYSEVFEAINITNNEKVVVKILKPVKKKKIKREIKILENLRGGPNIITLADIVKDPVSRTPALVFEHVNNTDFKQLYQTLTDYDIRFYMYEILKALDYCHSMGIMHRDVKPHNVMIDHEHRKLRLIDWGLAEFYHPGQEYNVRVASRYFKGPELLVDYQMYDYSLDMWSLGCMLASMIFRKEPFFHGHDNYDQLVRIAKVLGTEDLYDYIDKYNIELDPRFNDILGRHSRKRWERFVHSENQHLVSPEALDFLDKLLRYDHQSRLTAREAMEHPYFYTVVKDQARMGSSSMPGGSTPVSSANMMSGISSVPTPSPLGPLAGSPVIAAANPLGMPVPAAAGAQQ
Target sequence in this assay (P62942+O15294 fused P62942:F37V partner): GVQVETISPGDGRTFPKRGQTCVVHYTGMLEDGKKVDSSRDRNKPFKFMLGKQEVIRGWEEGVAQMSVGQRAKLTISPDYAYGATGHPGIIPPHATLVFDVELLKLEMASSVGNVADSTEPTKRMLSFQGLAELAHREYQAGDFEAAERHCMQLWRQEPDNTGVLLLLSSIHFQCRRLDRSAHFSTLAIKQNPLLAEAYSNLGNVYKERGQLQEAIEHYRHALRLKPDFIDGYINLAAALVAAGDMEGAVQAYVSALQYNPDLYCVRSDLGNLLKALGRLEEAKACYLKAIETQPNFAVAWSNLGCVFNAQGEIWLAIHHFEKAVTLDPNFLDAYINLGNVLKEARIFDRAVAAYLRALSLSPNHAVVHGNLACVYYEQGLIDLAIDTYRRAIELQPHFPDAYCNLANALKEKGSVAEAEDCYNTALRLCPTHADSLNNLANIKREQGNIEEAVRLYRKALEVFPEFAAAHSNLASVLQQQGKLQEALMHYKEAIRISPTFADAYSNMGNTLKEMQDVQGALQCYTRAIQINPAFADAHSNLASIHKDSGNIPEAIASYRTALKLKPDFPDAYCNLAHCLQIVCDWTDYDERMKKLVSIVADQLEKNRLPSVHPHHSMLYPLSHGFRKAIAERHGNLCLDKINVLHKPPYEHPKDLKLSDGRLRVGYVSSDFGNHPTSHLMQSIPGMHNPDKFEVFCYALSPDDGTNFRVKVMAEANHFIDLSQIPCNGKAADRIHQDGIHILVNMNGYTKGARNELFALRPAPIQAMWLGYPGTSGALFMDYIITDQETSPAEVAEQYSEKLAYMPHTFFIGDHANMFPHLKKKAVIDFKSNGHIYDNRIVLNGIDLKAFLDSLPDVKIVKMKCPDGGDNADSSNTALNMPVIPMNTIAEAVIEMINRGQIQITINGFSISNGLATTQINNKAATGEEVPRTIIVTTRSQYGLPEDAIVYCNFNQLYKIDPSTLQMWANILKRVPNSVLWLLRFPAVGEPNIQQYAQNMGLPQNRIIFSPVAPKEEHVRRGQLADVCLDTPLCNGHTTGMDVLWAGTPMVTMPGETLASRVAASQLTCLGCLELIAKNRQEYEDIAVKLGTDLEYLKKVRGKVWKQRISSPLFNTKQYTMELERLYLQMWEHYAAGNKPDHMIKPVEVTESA

HTN-EZH2 = experiment: O-GlcNAc inducing effects on HTN-EZH2; settings: HTN-EZH2:fOGT=1:0.01
Description: FIG. 13: Evaluation of O-GlcNAc inducing effects of OGTAC-1/2/3 on HTN-EZH2 and dose-dependent effect of OGTAC-1 on HTN-EZH2. In the treatment group, transfection ratio is HTN-EZH2:fOGT:=1:0.01.
As there are >20,000 commercially available plasmids for HaloTag-fused human proteins,46 OGTACs can be rapidly tested in a wide range of POIs, enabling time- and dose-dependent manipulation of their specific O-GlcNAcylation level.

HTN-CK2α [3] = biological target: T2, HTN-CK2α; experiment: O-GlcNAcylation of HTN-CK2α with 0tfOGT; parameters: 0TPR(463-1046)-; expressed in transfected cells; settings: vs negative control OGTAC-1H
Method: FIGS. 18A and 18B: Immunoblotting analysis of the global O-GlcNAcylation inducing effect of truncated OGTAC-4 and OGTAC-1 on HTN-BRD4 and HTN-CK2α respectively. (A), O-GlcNAcylation inducing effect of OGTAC-4 is dependent on the expression of 0tfOGT. […] The quantification was conducted by immunoblot signal of probe treatment/control as the mean±s.e.m. of n=2 biologically independent experiments. TR, transfection reagent.
Target sequence in this assay (P68400 with tags, fused parts or gaps): as the sequence (P68400 with tags, fused parts or gaps) above
Target sequence in this assay (P62942+O15294 fused P62942:F37V partner): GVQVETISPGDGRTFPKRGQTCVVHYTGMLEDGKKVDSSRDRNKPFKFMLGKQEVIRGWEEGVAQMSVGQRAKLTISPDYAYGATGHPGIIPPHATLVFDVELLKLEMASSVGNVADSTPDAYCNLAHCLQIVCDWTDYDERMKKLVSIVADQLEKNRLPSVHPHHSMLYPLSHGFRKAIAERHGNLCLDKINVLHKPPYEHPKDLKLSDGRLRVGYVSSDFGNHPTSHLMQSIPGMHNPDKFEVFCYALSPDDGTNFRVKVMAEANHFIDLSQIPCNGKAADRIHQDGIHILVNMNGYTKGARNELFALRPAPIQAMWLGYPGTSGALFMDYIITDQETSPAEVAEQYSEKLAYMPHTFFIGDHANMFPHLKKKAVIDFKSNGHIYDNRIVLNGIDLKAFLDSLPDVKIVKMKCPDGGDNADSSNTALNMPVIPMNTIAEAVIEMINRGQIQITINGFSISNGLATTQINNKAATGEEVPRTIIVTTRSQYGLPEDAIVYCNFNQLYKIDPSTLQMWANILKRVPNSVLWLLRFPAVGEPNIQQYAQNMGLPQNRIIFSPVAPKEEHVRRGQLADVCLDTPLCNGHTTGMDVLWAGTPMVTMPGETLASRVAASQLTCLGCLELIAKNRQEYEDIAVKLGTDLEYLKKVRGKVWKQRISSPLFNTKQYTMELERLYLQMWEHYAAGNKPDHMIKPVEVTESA

HTN-BRD4 = biological target: T3, HTN-BRD4 (Homo sapiens, UniProt O60885+P62942, F37V); experiment: IP-WB of HTN-BRD4 O-GlcNAcylation with truncated 0tfOGT; settings: 0tfOGT:HTN-BRD4 system, 4 h
T3 construct: HaloTag fragment; expressed in transfected cells; host or cells: HEK293T
T3 sequence (P62942 whole entry F37V, stated change not applied, other chains not shown, the tested form may be a part): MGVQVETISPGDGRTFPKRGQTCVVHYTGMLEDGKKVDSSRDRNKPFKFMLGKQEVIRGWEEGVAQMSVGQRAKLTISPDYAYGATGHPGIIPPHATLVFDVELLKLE
Method: FIGS. 7A-7E: Specificity and reversibility of OGTAC strategy. […] (B), Constructs of fOGT with 13.5 (rounded to 13) TPR and 0TPR-fOGT (0tfOGT). (C). […] (D), Dose-dependent O-GlcNAcylation profile of HTN-BRD4 by OGTAC-4 treatment. HEK293T cells expressing HTN-BRD4:0tfOGT=1:0.05 were treated with an increasing concentration of OGTAC-4 for 4 h. Then, the O-GlcNAcylation level of HTN-BRD4 was assessed by immunoblot after IP using BRD4 antibody. All quantifications are shown as mean±s.e.m. of n=3 biologically independent experiments. (E), Reversible effect of OGTAC-4 on HTN-BRD4 can be achieved by addition of AP1867. HEK293T cells expressing HTN-BRD4:0tfOGT=1:0.05 were pretreated with OGTAC-4 (500 nM) or DMSO for 4 h, and culturing media were replaced by fresh media with DMSO or AP1867 (50 μM) for the indicated time. The quantifications in right panel were conducted by the normalizing the fold-change (OGTAC-4/DMSO) for each post-washout time point to the value of 4 h pre-treatment. All quantifications are shown as mean±s.e.m. of 3 independent biological repeats. Statistical significance was calculated with ordinary one-way ANOVA comparing samples with different transfection conditions or OGTAC-treatment. ns, p≥0.05; *p<0.05; **p<0.01; ***p<0.001; ****p<0.0001.
We next applied OGTAC-4 to the 0tfOGT:HTN-BRD4 system, resulting in an 5-fold increase in O-GlcNAc level on BRD4. […]

T1 sequence (P62942 whole entry F37V, the tested form may be a part): as the sequence (P62942 whole entry F37V, stated change not applied, other chains not shown, the tested form may be a part) above

Row | Compound | ΔTm at 5 µM [1] | O-GlcNAcylation level of endogenous CK2α (endogenous CK2α) | effect on HTN-CK2α in HeLa cells (HTN-CK2α [2]) | O-GlcNAcylation-inducing effect on HTN-EZH2 (HTN-EZH2) | O-GlcNAcylation level of HTN-CK2α with 0tfOGT (HTN-CK2α [3]) | fold increase in O-GlcNAc level on BRD4 (HTN-BRD4)
1 | CC[C@H](C(=O)N1CCCC[C@H]1C(=O)O[C@H](CCc1ccc(OC)c(OC)c1)c1cccc(OCC(=O)NCCOCCOCCCCCCCl)c1)c1cc(OC)c(OC)c(OC)c1 [OGTAC-1, (R)-1-(3-(2-((2-(2-((6-chlorohexyl)oxy)ethoxy)ethyl)amino)-2-oxoethoxy)phenyl)-3-(3,4-dimethoxyphenyl)propyl (S)-1-((S)-2-(3,4,5-trimethoxyphenyl)butanoyl) piperidine-2-carboxylate] | 1.4 °C | did not alter | confirmed the effect | highest O-GlcNAcylation-inducing effects among the three OGTACs | higher O-GlcNAcylation level | 
2 | CC[C@H](C(=O)N1CCCC[C@H]1C(=O)O[C@H](CCc1ccc(OC)c(OC)c1)c1cccc(OCC(=O)NCCCCCCNC(=O)C[C@@H]2N=C(c3ccc(Cl)cc3)c3c(sc(C)c3C)-n3c(C)nnc32)c1)c1cc(OC)c(OC)c(OC)c1 [OGTAC-4, (R)-1-(3-(2-((6-(2-((S)-4-(4-chlorophenyl)-2,3,9-trimethyl-6H-thieno[3,2-f[]8 1,2,4]triazolo[4,3-a][1,4]diazepin-6-yl)acetamido)hexyl)amino)-2-oxoethoxy)phenyl)-3-(3,4-dimethoxyphenyl)propyl (S)-1-((S)-2-(3,4,5-trimethoxyphenyl)butanoyl)piperidine-2-carboxylate] |  |  |  |  |  | 5 fold
